The assay has as its target PI3Kα (Homo sapiens, UniProt P42336). Put plainly: pAKT S473 ELISA in A549 cells (PI3Kα activation). Type of assay: cell-based. Also noted: endogenous in cells; host or cells: A549. The conditions noted are these: for pEC50: A549 cells, 15 min treatment, pAKT S473 ELISA, normalised to Emax of 1 μM insulin, read-out: Av EC50; for Emax at 10 µM: A549, 0.25 h, read-out: <50% response at 10 μM. The procedure: EC50 values were determined by quantifying phosphorylation on S473 residues of Akt in A549 human adenocarcinoma cells by ELISA (enzyme linked immunoadsorbent assay, R&D Systems, DYC887BE). A549 cells were seeded into 96-well plates (50,000 cells/well) in DMEM supplemented with 10% foetal bovine serum and 1% penicillin-streptomyocin. Following 24 h in culture cells were starved for 24 h in serum-free DMEM before 15 minute treatment with a concentration response curve of compounds. Experimental compounds were diluted in DMSO into […] 1:3 concentration response curves in polypropylene V-bottom plates (SLS MIC9050). Concentration response curves were diluted to a 3× stock in serum-free DMEM. Standard 8-point concentration response curves were performed at 50, 16.7, 5.6, 1.9, 0.6, 0.2, 0.07, 0.02 μM and serum-free DMEM containing 0.5% DMSO was used as a negative control. […] A549 cells were seeded at 50,000 cells per well in 96-well plates in DMEM (10% FBS+1% P/S). The next day cells were washed once with PBS before addition of serum-free DMEM for 24 h. On the day of treatment cells, were incubated in fresh serum-free DMEM prior to treatment. Compounds solubilised to 10 mM in DMSO were diluted 1:3 in an 8-point concentration response curve in DMSO. Concentration response curves were diluted in serum-free DMEM by transfer into intermediate plates using a BRAVO liquid handler (Agilent). Intermediate plates were then used to treat cell plates using the BRAVO liquid handler. Compound concentration response curves had atop concentration of 50 μM and a final well concentration of 0.5% DMSO. Cell plates were treated for 15 min at 37° C., 5% CO2 before being washed with ice-cold PBS and lysed in lysis buffer 6 (R&D Systems #895561) and freezing at −80° C. Levels of pAKT-S473 were determined using the phospho-AKT (S473) pan-specific Duoset IC ELISA (R&D Systems #DYC887BE) in 96-well white high-binding plates (Corning #3922) according to manufacturer's instructions. Endpoint luminescence was measured using a Sense (Hidex) platereader. […] Data were transformed and EC50 data were determined by variable slope (4 parameters) non-linear regression using Prism 7 (Graphpad).

By pEC50 is commonly meant the EC50 on a negative log10 scale, so that one unit is a factor of ten.

Structures are written as SMILES. pEC50: −log10 of the molar value.

Sequence of PI3Kα (P42336 whole entry): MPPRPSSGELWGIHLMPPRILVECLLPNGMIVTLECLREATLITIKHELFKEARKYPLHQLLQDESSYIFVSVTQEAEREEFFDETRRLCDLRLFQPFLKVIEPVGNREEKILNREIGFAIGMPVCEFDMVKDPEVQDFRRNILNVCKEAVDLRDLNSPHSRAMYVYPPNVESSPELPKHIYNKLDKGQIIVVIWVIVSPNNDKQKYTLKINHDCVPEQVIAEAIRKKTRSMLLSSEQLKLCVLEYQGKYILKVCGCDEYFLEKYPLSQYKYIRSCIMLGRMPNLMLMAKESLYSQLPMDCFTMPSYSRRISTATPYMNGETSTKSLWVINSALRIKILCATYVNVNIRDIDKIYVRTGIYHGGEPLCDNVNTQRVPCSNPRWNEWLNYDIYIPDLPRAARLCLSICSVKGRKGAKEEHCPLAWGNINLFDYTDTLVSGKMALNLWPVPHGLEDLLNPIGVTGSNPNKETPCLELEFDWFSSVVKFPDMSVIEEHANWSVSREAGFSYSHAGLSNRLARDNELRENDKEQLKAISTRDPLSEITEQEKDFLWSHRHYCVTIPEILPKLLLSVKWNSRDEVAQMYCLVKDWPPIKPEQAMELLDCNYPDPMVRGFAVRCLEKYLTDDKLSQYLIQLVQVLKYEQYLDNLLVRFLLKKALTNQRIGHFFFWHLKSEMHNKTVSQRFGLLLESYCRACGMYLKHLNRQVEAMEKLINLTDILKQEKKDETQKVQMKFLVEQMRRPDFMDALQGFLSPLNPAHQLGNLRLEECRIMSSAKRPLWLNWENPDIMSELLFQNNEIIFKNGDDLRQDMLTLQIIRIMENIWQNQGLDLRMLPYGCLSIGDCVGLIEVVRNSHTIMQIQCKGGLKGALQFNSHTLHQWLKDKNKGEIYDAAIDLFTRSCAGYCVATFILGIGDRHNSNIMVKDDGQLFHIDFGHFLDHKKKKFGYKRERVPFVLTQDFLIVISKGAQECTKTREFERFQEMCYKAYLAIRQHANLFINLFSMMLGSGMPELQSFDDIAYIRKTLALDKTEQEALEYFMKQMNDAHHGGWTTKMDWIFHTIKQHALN
Sequence of PI3Kα (P27986 whole entry partner): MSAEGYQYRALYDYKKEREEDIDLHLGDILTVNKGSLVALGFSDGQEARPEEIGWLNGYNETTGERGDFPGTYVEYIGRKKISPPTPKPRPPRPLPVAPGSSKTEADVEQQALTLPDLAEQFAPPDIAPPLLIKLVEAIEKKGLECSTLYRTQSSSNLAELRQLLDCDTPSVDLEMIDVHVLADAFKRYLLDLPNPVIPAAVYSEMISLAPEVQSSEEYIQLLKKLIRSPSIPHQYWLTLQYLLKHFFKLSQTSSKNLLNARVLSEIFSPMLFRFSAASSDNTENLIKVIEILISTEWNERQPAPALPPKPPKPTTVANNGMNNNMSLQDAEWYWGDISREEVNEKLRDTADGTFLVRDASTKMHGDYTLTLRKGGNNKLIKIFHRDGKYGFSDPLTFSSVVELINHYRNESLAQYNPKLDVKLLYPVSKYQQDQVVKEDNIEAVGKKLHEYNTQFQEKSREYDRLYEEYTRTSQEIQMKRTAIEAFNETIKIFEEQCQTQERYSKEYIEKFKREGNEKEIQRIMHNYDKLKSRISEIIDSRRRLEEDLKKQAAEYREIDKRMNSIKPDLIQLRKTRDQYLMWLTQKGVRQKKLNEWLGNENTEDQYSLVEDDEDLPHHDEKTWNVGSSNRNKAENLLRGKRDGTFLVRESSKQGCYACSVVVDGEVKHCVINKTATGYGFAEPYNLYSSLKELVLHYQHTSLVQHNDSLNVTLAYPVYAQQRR

For `CNC(=O)c1ccc(Nc2ccnc(Nc3ccc(N4CCN(C)CC4)cc3OC)c2)cc1` [61 (2055)], the pEC50 was 5.58. Consider `COc1cc(N2CCN(C)CC2)ccc1Nc1cc(Nc2cccc3nccnc23)ccn1` [62 (2056)], for which the Emax at 10 µM is less than 50% and the pEC50 was 5.89. The matching figures for `COc1cc(N2CCN(C)CC2)ccc1Nc1cc(Nc2cccc3[nH]ccc23)ccn1` [63 (2057)]: less than 50% and less than 4.30. Regarding `COc1cc(N2CCN(C)CC2)ccc1Nc1cc(Nc2cccnc2)ccn1` [64 (2061)], the pEC50 is 5.80. For the molecule `COc1cc(N2CCN(C)CC2)ccc1Nc1cc(Nc2cccc(-n3ccnc3)c2)ccn1` [65 (2063)], the pEC50 is 5.82. Regarding `COc1cc(N2CCN(C)CC2)ccc1Nc1cc(Nc2cccc(-n3cnnc3)c2)ccn1` [66 (2064)], the pEC50 is 4.76.

As to `COc1cc(N2CCN(C)CC2)ccc1Nc1cc(Nc2ncccc2C#N)ccn1` [67 (2066)], the Emax at 10 µM is less than 50% and the pEC50 was less than 4.30. On to `CC(=O)N1CCc2cccc(Nc3ccnc(Nc4cccc5ncccc45)c3)c21` [68 (2067)], for which the pEC50 was 5.40.

Turning to `C#Cc1cccc(Nc2cc(Nc3cccc4c3N(C(C)=O)CC4)ccn2)c1` [69 (2069)], the negative logarithm of the EC50 (pEC50) is less than 4.30. Turning to `CC(=O)N1CCc2cccc(Nc3ccnc(Nc4cc(C(C)C)nn4C)c3)c21` [70 (2070)], the Emax at 10 µM was less than 50% and the pEC50 was 6.41.

`CC(=O)N1CCc2cccc(Nc3ccnc(Nc4cccc5ccncc45)c3)c21` [71 (2071)]: the Emax at 10 µM was less than 50% and the pEC50 was 5.18. Consider `CC(=O)N1CCc2cc(Nc3cc(Nc4cccc5c4N(C(C)=O)CC5)ccn3)ccc21` [72 (2072)], for which the pEC50 is 5.97.

As to `CC(=O)N1CCc2ccc(Nc3cc(Nc4cccc5c4N(C(C)=O)CC5)ccn3)cc21` [73 (2073)], the Emax at 10 µM is less than 50% and the pEC50 is 6.30. Regarding `CC(=O)N1CCc2cccc(Nc3ccnc(Nc4ccc(-c5ccccc5)cn4)c3)c21` [74 (2079)], the pEC50 is less than 4.30. With `CC(=O)N1CCc2cccc(Nc3ccnc(Nc4ccc(C(=O)N(C)C)cc4)c3)c21` [75 (2101)], the Emax at 10 µM is less than 50% and the pEC50 is less than 4.72. Regarding `CCN1CCN(c2ccc(Nc3cc(Nc4cc(C(C)(C)C)nn4C)ccn3)cc2)CC1` [76 (2102)], the pEC50 is 5.66.

For `CCN1CCN(c2ccc(Nc3cc(Nc4cc(C(C)C)nn4C)ccn3)cc2)CC1` [77 (2103)], the pEC50 is 5.68. Same read-out and setting: under `CCN1CCN(c2ccc(Nc3cc(Nc4cccc(C(=O)NC)c4)ccn3)cc2)CC1` [78 (2104)] stands 5.70; under `CCN1CCN(c2ccc(Nc3cc(Nc4ccc(C(=O)NC)cc4)ccn3)cc2)CC1` [79 (2105)], 5.08; under `CCN1CCN(c2ccc(Nc3cc(Nc4ccncn4)ccn3)cc2)CC1` [80 (2106)], no more than 4.30. Still for that read-out and setting: next, `CCN1CCN(c2ccc(Nc3cc(Nc4cccc(-n5ccnc5)c4)ccn3)cc2)CC1` [81 (2107)]: 5.27; `CCN1CCN(c2ccc(Nc3cc(Nc4cccc(S(C)(=O)=O)c4)ccn3)cc2)CC1` [82 (2108)]: 5.82. Consider `CC(=O)N1CCc2cc(Nc3cc(Nc4cc(C(C)(C)C)nn4C)ccn3)ccc21` [83 (2109)], for which the Emax at 10 µM was less than 50% and the pEC50 was 5.56. For the molecule `CC(=O)N1CCc2cc(Nc3cc(Nc4cc(C(C)C)nn4C)ccn3)ccc21` [85 (2110)], the Emax at 10 µM was less than 50% and the pEC50 is less than 4.57. The matching figures for `CNC(=O)c1cccc(Nc2ccnc(Nc3ccc4c(c3)CCN4C(C)=O)c2)c1` [86 (2111)]: less than 50% and less than 4.54. In the case of `CNC(=O)c1ccc(Nc2ccnc(Nc3ccc4c(c3)CCN4C(C)=O)c2)cc1` [87 (2112)], the Emax at 10 µM is less than 50% and the pEC50 is less than 4.57. `CC(=O)N1CCc2cc(Nc3cc(Nc4cccc(S(C)(=O)=O)c4)ccn3)ccc21` [88 (2115)]: the Emax at 10 µM was less than 50% and the pEC50 was less than 4.30.

Turning to `CNC(=O)c1ccc(Nc2cc(Nc3cc(C(C)(C)C)nn3C)ccn2)cc1` [89 (2116)], the Emax at 10 µM is less than 50% and the pEC50 is less than 4.30. Regarding `CNC(=O)c1ccc(Nc2cc(Nc3cc(C(C)C)nn3C)ccn2)cc1` [90 (2117)], the Emax at 10 µM is less than 50% and the pEC50 was less than 4.30. As for `COc1cc(C(=O)N2CCOCC2)ccc1Nc1cc(Nc2cccc3c2N(C(C)=O)CC3)ccn1` [91 (2347)], the pEC50 is 5.64. In the case of `CC(=O)N1CCc2cccc(Nc3ccnc(Nc4ccc(C(=O)N5CCOCC5)cc4)c3)c21` [92 (2348)], the pEC50 is less than 4.98. Same read-out and setting: next, `CNC(=O)c1ccc(Nc2cc(Nc3cccc4c3N(C(C)=O)CC4)ccn2)c(OC)c1` [93 (2349)]: 5.29; `CC(=O)N1CCc2cccc(Nc3ccnc(Nc4ccc(N5CCOCC5)cc4C)c3)c21` [94 (2350)]: 5.34. In the case of `CC(=O)N1CCc2cccc(Nc3ccnc(Nc4ccc(N5CCN(C)CC5)cc4C)c3)c21` [95 (2351)], the pEC50 was 4.83. `COc1cc(N2CC3(COC3)C2)ccc1Nc1cc(Nc2cccc3c2N(C(C)=O)CC3)ccn1` [96 (2353)]: the Emax at 10 µM was less than 50% and the pEC50 is less than 6.30. For the molecule `COc1cc(N2CCN(C3CC3)CC2)ccc1Nc1cc(Nc2cccc3c2N(C(C)=O)CC3)ccn1` [97 (2354)], the pEC50 is 6.01. Turning to `CC(=O)N1CCc2cccc(Nc3ccnc(Nc4ccnc5ccccc45)c3)c21` [98 (2355)], the pEC50 is less than 4.30. Turning to `CCN1CCN(c2ccc(Nc3cccc(Nc4cccc5c4N(C(C)=O)CC5)c3)cc2)CC1` [99 (2346)], the Emax at 10 µM was less than 50% and the pEC50 was less than 4.30. Regarding `COc1ccccc1Nc1cc(Nc2cccc3c2N(C(C)=O)CC3)ccn1` [99 (2356)], the Emax at 10 µM was less than 50% and the pEC50 is 5.32. Take `COc1cc(C#N)ccc1Nc1cc(Nc2cccc3c2N(C(C)=O)CC3)ccn1` [100 (2357)]: the pEC50 is less than 4.30. For `CC(=O)N1CCc2cccc(Nc3ccnc(Nc4cccc(NS(C)(=O)=O)c4)c3)c21` [101 (2358)], the pEC50 is less than 4.30. In the case of `CC(=O)N1CCc2cccc(Nc3ccnc(Nc4cccc(S(C)(=O)=O)c4)c3)c21` [102 (2359)], the pEC50 was less than 4.30.

With `COc1cc(N2CCN(C)CC2)ccc1Nc1cc(-c2cccc(C(=O)N(C)C)c2)ccn1` [103 (1940)], the Emax at 10 µM was less than 50% and the pEC50 is less than 4.30.

In the case of `COc1ccc(S(C)(=O)=O)cc1Nc1cc(Nc2cccc3c2N(C(C)=O)CC3)ccn1` [R1 (1888)], the pEC50 was 5.81. For the molecule `COc1cc(N2CCN(C)CC2)ccc1Nc1cc(Nc2cccc3c2N(C(C)=O)CC3)c(F)cn1` [R2 (1890)], the pEC50 is 5.79. On to `COc1cc(Nc2cc(Nc3cccc4c3N(C(C)=O)CC4)ccn2)cc(OC)c1OC` [R3 (1887)], for which the pEC50 was 5.71. On to `COc1cc(N2CCN(C)CC2)ccc1Nc1cc(Nc2cccc3c2N(C(C)=O)CC3)ccn1` [R4 (1889)], for which the pEC50 was 5.59. Regarding `CC(=O)N1CCc2cccc(Nc3ccnc(-c4cnn(C5CCNCC5)c4)c3)c21` [R5 (1962)], the Emax at 10 µM was less than 50% and the pEC50 was 6.23.

For the origin of these results see patent US20250263404A1, “AMINOPYRIDINES AS ACTIVATORS OF PI3 KINASE” (UCL Business Ltd, priority 2021, published 2025).
